Values belong to the substance of their own block, whether it stands above or below them. No end group written: not given here.
Tests used:
[1] = molecular target: T1, PACAP-R2 (Homo sapiens, UniProt P32241); assay: Cyclic AMP SPA on CHO cells transfected with PACAP-R2; assay type: cell-based; settings: cAMP SPA, concentration at which 50% of maximum PACAP27 activity is achieved, NA = no detectable activities, read-out: R2 EC50
T1 construct: expressed in transfected cells; host or cells: CHO cells
T1 sequence (P32241 31-457): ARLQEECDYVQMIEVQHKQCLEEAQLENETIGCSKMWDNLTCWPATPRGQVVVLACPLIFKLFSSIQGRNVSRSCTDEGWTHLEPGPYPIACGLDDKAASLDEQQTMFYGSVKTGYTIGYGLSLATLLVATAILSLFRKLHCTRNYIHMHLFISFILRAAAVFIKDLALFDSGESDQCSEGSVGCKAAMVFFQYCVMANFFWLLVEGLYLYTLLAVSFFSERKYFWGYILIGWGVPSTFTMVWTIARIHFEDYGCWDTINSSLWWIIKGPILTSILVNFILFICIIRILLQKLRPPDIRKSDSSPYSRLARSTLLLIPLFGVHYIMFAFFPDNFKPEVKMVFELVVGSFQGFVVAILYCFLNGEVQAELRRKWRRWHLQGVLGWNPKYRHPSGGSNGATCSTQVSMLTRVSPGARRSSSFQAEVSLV
Summary of the method: (§1)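 Transfected CHO cells grown 24 h were exposed to peptide for 15 min at 37 C in Hepes-PBS-BSA containing 100 uM IBMX, 0.4 mg/ml soybean trypsin inhibitor and 0.5 mg/ml bacitracin. Cellular cAMP was measured by scintillation proximity assay. EC50 is the peptide concentration giving 50% of maximal PACAP27 activity.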

[2] = molecular target: T2, PACAP-R3 (Homo sapiens, UniProt P41587); assay: Cyclic AMP SPA on CHO cells expressing PACAP R3; assay type: cell-based; parameters: expressed in transfected cells; host or cells: CHO cells (Geneticin selection); settings: for EC50: cAMP SPA, CHO cells transfected with PACAP-R3, concentration at which 50% of maximum PACAP27 activity is achieved, NA = no detectable activities, read-out: R3 EC50; for R3 Selectivity: ratio of EC50 at R2 versus EC50 at R3
T2 sequence (P41587 24-438): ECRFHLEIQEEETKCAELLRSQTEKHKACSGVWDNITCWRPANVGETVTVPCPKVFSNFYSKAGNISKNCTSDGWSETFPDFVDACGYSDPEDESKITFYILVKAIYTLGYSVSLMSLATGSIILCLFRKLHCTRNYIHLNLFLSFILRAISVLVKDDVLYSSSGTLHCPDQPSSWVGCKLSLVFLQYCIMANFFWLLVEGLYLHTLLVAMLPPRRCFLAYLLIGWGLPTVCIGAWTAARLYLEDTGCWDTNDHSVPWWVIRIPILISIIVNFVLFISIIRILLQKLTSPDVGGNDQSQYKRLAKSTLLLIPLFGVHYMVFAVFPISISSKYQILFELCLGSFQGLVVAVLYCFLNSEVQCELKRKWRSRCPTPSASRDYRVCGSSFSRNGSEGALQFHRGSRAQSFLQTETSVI
Summary of the method: as §1

Substance: HSDAVFTDNYTRLRKQMAAKKYLNSIWNKR [Peptide R3P132]
EC50 [1]: 10 nM
EC50 [2]: 0.2 nM
R3 Selectivity [2]: 50

Substance: HSDAVFTDNYTRLRKQMAAKKYLNSIKNKG [Peptide R3P158]
EC50 [1]: 6 nM
EC50 [2]: 0.07 nM
R3 Selectivity [2]: 90

Substance: HSDAVFTDNYTRLRKQMAVKKYLNSIKK [Peptide R3P41]
EC50 [1]: 8 nM
EC50 [2]: 0.08 nM
R3 Selectivity [2]: 100

Substance: H-HSDAVFTDNYTRLRKQMAAKHYLNSIKNKRY [Peptide R3P74]
EC50 [1]: 90 nM
EC50 [2]: 0.6 nM
R3 Selectivity [2]: 150

Substance: HSDAVFTDNYTRLRKQMAAKKYLNSIKNSR [Peptide R3P148]
EC50 [1]: 30 nM
EC50 [2]: 0.3 nM
R3 Selectivity [2]: 100

Substance: HSDAVFTDNYTRLRKQLAAKKYLNDIKKQ [Peptide R3P34]
EC50 [1]: > 100 nM
EC50 [2]: 1.4 nM
R3 Selectivity [2]: >70

Substance: HSDAVFTDNYTRLRKQIAAKKYLQTIKK [Peptide R3P61]
EC50 [1]: 110 nM
EC50 [2]: 0.8 nM
R3 Selectivity [2]: 140

Substance: H-HSDGIFTDSYSRYRKQLAAKKYLADVKKGGT [Peptide R3P37]
EC50 [1]: 71 nM
EC50 [2]: 4 nM
R3 Selectivity [2]: 18

Substance: HSDAVFTDNYTRLRKQMAIKKYLNSIKNKR [Peptide R3P103]
EC50 [1]: 0.4 nM
EC50 [2]: 0.05 nM
R3 Selectivity [2]: 8

Substance: HSDAVFTDNYTRLRKQVAAKKYLNSIKKKR [Peptide R3P78]
EC50 [1]: 250 nM
EC50 [2]: 1.1 nM
R3 Selectivity [2]: 230

EC50 [1]: 56 nM
EC50 [2]: 0.09 nM
R3 Selectivity [2]: 660
Substance: HSDAVFTDQYTRLRKQMAAKKYLNSIKNKRY [Peptide R3P71]

Substance: HSDAVFTDNYTRLRKQMAAKKYLNSIPNRI [rR3P179]
EC50 [1]: 230 nM
EC50 [2]: 1.5 nM
R3 Selectivity [2]: 150

Substance: HSDAVFTDNYTRLRKQMAGKKYLNSIKNKR [Peptide R3P101]
EC50 [1]: 400 nM
EC50 [2]: 1 nM
R3 Selectivity [2]: 400

Substance: HSDAVFTDNYTRLRKQMARKKYLNSIPNRI [rR3P182]
EC50 [1]: 280 nM
EC50 [2]: 3.2 nM
R3 Selectivity [2]: 90

Substance: HSDAVFTDNYTRLRKQMAYKKYLNSIKNKR [Peptide R3P115]
EC50 [1]: 300 nM
EC50 [2]: 6 nM
R3 Selectivity [2]: 50

Substance: HSDAVFTDNYTRLRKQMAAKKYLNSITNKR [Peptide R3P130]
EC50 [1]: 40 nM
EC50 [2]: 1 nM
R3 Selectivity [2]: 40

EC50 [1]: > 100 nM
EC50 [2]: 2 nM
R3 Selectivity [2]: >50
Substance: Ac-HSDAVFTENYTKLRKQLAAKKYLNDLKKGGT-NH2 [Peptide R3P1]

Substance: ESDGIFTDSYSRYRKQMAVKKYLAAVL-NH2 [PAC1]
EC50 [1]: 970 nM
EC50 [2]: 10 nM
R3 Selectivity [2]: 97

Substance: HSDAVFTDNYTRLRKQLAVKKYLNSILN [Peptide R3P46]
EC50 [1]: 0.4 nM
EC50 [2]: 0.06 nM
R3 Selectivity [2]: 7

Substance: HSDAVFTDNYTRLRKQMAAKKYLNSIRNRI [rR3P189]
EC50 [1]: 1.3 nM
EC50 [2]: 0.04 nM
R3 Selectivity [2]: 30

Substance: HSDKIFTDSYSRYRKQMAVKKYLAAVL-NH2 [PAC4]
EC50 [1]: 45 nM
EC50 [2]: 7 nM
R3 Selectivity [2]: 6

Substance: HSDAVFTDNYTRLRKQLAAKKYLNDILNGGT [Peptide R3P27]
EC50 [1]: 6.4 nM
EC50 [2]: 0.8 nM
R3 Selectivity [2]: 8

Substance: HSDAVFTDNYTRLRKQLAAKKYLNDIKKGG [Peptide R3P31]
EC50 [1]: > 100 nM
EC50 [2]: 0.3 nM
R3 Selectivity [2]: >300

Substance: HSDAVFTDNYTRLRKQMAAKKYLNSIKNRR [Peptide R3P147]
EC50 [1]: 100 nM
EC50 [2]: 0.2 nM
R3 Selectivity [2]: 500

Substance: HSDGIFTDSYSRYRKQMAVKKYLAAKL-NH2 [PAC26]
EC50 [1]: 0.25 nM
EC50 [2]: 0.3 nM
R3 Selectivity [2]: 1

Substance: HSDAVFTDNYTRLRKQMAHKKYLNSIKNKR [Peptide R3P102]
EC50 [1]: 300 nM
EC50 [2]: 60 nM
R3 Selectivity [2]: 5

Substance: HSDAVFTDNYTRLRKQMAAKKYLNSIRNKR [Peptide R3P128]
EC50 [1]: 60 nM
EC50 [2]: 0.3 nM
R3 Selectivity [2]: 200

Substance: HSDAVFTDNYTRLRKQMAAKKYLNSIKNKT [Peptide R3P168]
EC50 [1]: 60 nM
EC50 [2]: 0.2 nM
R3 Selectivity [2]: 300

Substance: HSDAVFTDNYTRLRKQMAAKKYLNSIKNKP [Peptide R3P165]
EC50 [1]: 150 nM
EC50 [2]: 0.5 nM
R3 Selectivity [2]: 300

Substance: HSDGIFTKSYSRYRKQMAVKKYLAAVL-NH2 [PAC8]
EC50 [1]: 43 nM
EC50 [2]: 47 nM
R3 Selectivity [2]: 1

Substance: HSDAVFTDNYTRLRKQMARKKYLNSIKNRI [rR3P177]
EC50 [1]: 110 nM
EC50 [2]: 1.6 nM
R3 Selectivity [2]: 70

Substance: HSDAVFTDNYTRLRKQMAVKKYLNSILK [Peptide R3P43]
EC50 [1]: 0.8 nM
EC50 [2]: 0.08 nM
R3 Selectivity [2]: 10

Substance: HSDAVFTDNYTRLRKQVAAKKYLNSIKNKRY [Peptide R3P68]
EC50 [1]: 130 nM
EC50 [2]: 0.5 nM
R3 Selectivity [2]: 260

Substance: HSDAVFTDNYTRLRKQMAAKKYLNSIKNER [Peptide R3P137]
EC50 [1]: 30 nM
EC50 [2]: 0.3 nM
R3 Selectivity [2]: 100

Substance: HSDAVFTDNYTRLRKQMAGKKYLNSIPNRI [rR3P180]
EC50 [1]: > 100 nM
EC50 [2]: 6.7 nM
R3 Selectivity [2]: >20

Substance: HSDAVFTDNYTRLRKQMAKKKYLNSIPNRI [rR3P181]
EC50 [1]: 280 nM
EC50 [2]: 5.1 nM
R3 Selectivity [2]: 50

Substance: HSDAVFTDNYTRLRKQMAAKKYLNSILK [Peptide R3P50]
EC50 [1]: 0.7 nM
EC50 [2]: 0.13 nM
R3 Selectivity [2]: 6

Substance: HSDAVFTDNYTRLRKQVAAKKYLQSILNKR [Peptide R3P93]
EC50 [1]: 6 nM
EC50 [2]: 0.14 nM
R3 Selectivity [2]: 40

Substance: HSDAVFTDNYTRLRKQMAWKKYLNSIKNKR [Peptide R3P114]
EC50 [1]: 20 nM
EC50 [2]: 2 nM
R3 Selectivity [2]: 10

Substance: HSDAVFTDNYTRLRKQMAAKKYLNSIKNKR [Peptide R3P65]
EC50 [1]: 80 nM
EC50 [2]: 0.6 nM
R3 Selectivity [2]: 130

Substance: HSDAVFTDNYTRLRKQLAVKKYLNSIKKGGT [Peptide R3P25]
EC50 [1]: 15 nM
EC50 [2]: 0.7 nM
R3 Selectivity [2]: 20

Substance: HSDAVFTDNYTRLRKQMARKKYLNSIQNRI [rR3P187]
EC50 [1]: > 130 nM
EC50 [2]: 1.6 nM
R3 Selectivity [2]: >80

Substance: HSDGIFTDSYSRYRKQMAVKEYLAAVL-NH2 [PAC21]
EC50 [1]: 2.5 nM
EC50 [2]: 0.24 nM
R3 Selectivity [2]: 10

Substance: HSDAVFTDNYTRLRKQMAKKKYLNSIKNRI [rR3P176]
EC50 [1]: 300 nM
EC50 [2]: 2 nM
R3 Selectivity [2]: 150

Substance: H-HSDAVFTDNYTRLRKQMAGKKYLNSIRNRI [rR3P190]
EC50 [1]: 220 nM
EC50 [2]: 2.2 nM
R3 Selectivity [2]: 100

Substance: H-HSDAVFTDNYTRLRKQMAKKKYLNSIKNKR [Peptide R3P104]
EC50 [1]: 100 nM
EC50 [2]: 0.2 nM
R3 Selectivity [2]: 500

Substance: HSDAVFTDNYTRLRKQMAAKKYLNSIENKR [Peptide R3P119]
EC50 [1]: 15 nM
EC50 [2]: 0.5 nM
R3 Selectivity [2]: 30

Substance: HSDAVFTDNYTRLRKQVAAKKYLNSIKNKRY [Peptide R3P79]
EC50 [1]: 100 nM
R3 Selectivity [2]: 200

Substance: HSDAVFTDNYTRLRKQMAKKKYLNSIRNRI [rR3P191]
EC50 [1]: > 200 nM
EC50 [2]: 2.7 nM
R3 Selectivity [2]: >80

Substance: HSDAVFTDNYTRLRKQMAAKKYLNSIKNPR [Peptide R3P145]
EC50 [1]: 50 nM
EC50 [2]: 0.5 nM
R3 Selectivity [2]: 100

— US6972319B1, “Pituitary adenylate cyclase activating peptide (PACAP)receptor 3 (R3) agonists and their pharmacological methods of use” (priority 1999, dated 2005)
